Laboratory results taken from PubChem BioAssay (NCI).
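Protocol summary: plate cells (96-well), add compound at 5 concentrations, incubate 48 h, interpolate endpoints linearly. TGI: concentration producing complete growth inhibition.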

How the values were obtained:
Experiment in all cases: inhibition of tumour cell growth, NCI panel, 48 h
HOP-62 NSCLC = tested on: HOP-62 NSCLC
M14 melanoma = tested on: M14 melanoma
UACC-62 melanoma = tested on: UACC-62 melanoma
NCI-H23 lung = tested on: NCI-H23 lung
SR leukemia = tested on: SR leukemia
RPMI-8226 leukemia = tested on: RPMI-8226 leukemia
OVCAR-3 ovarian = tested on: OVCAR-3 ovarian
HOP-18 NSCLC = tested on: HOP-18 NSCLC
SNB-19 CNS = tested on: SNB-19 CNS
HT29 colon = tested on: HT29 colon
IGROV1 ovarian = tested on: IGROV1 ovarian
CAKI-1 renal = tested on: CAKI-1 renal
LXFL 529 NSCLC = tested on: LXFL 529 NSCLC
M19-MEL melanoma = tested on: M19-MEL melanoma
EKVX NSCLC = tested on: EKVX NSCLC
CCRF-CEM leukemia = tested on: CCRF-CEM leukemia
A549 NSCLC = tested on: A549 NSCLC
ACHN renal = tested on: ACHN renal
OVCAR-4 ovarian = tested on: OVCAR-4 ovarian
KM12 colon = tested on: KM12 colon
TK-10 renal = tested on: TK-10 renal
SK-MEL-28 melanoma = tested on: SK-MEL-28 melanoma
SN12C renal = tested on: SN12C renal
NCI-H522 lung = tested on: NCI-H522 lung
HL-60(TB) leukemia = tested on: HL-60(TB) leukemia
UO-31 renal = tested on: UO-31 renal
MOLT-4 leukemia = tested on: MOLT-4 leukemia
786-0 renal = tested on: 786-0 renal
HCC-2998 colon = tested on: HCC-2998 colon
HCT-116 colon = tested on: HCT-116 colon
SK-MEL-2 melanoma = tested on: SK-MEL-2 melanoma
HOP-92 NSCLC = tested on: HOP-92 NSCLC
SK-OV-3 ovarian = tested on: SK-OV-3 ovarian
SF-268 CNS = tested on: SF-268 CNS
MALME-3M melanoma = tested on: MALME-3M melanoma
HCT-15 colon = tested on: HCT-15 colon
U251 CNS = tested on: U251 CNS
COLO 205 colon = tested on: COLO 205 colon
SF-539 CNS = tested on: SF-539 CNS
DMS 273 small cell lung = tested on: DMS 273 small cell lung
A498 renal = tested on: A498 renal
OVCAR-8 ovarian = tested on: OVCAR-8 ovarian
KM20L2 colon = tested on: KM20L2 colon
SF-295 CNS = tested on: SF-295 CNS
OVCAR-5 ovarian = tested on: OVCAR-5 ovarian
DLD-1 colon = tested on: DLD-1 colon
DMS 114 small cell lung = tested on: DMS 114 small cell lung
NCI-H460 lung = tested on: NCI-H460 lung
SK-MEL-5 melanoma = tested on: SK-MEL-5 melanoma
NCI-H226 lung = tested on: NCI-H226 lung
SNB-75 CNS = tested on: SNB-75 CNS
SW-620 colon = tested on: SW-620 colon
LOX IMVI melanoma = tested on: LOX IMVI melanoma
XF 498 CNS = tested on: XF 498 CNS
UACC-257 melanoma = tested on: UACC-257 melanoma
SNB-78 CNS = tested on: SNB-78 CNS
RXF 393 renal = tested on: RXF 393 renal
K-562 leukemia = tested on: K-562 leukemia

CCC/C=C1\CCC(CN(C)C)C1=O (centres undefined)
TGI (HOP-62 NSCLC): 29.2 µM | TGI (M14 melanoma): 16.1 µM | TGI (UACC-62 melanoma): 28.2 µM | TGI (NCI-H23 lung): 32.8 µM | TGI (SR leukemia): 8.98 µM | TGI (RPMI-8226 leukemia): 2.75 µM | TGI (OVCAR-3 ovarian): 12.3 µM | TGI (HOP-18 NSCLC): 39 µM | TGI (SNB-19 CNS): > 67 µM | TGI (HT29 colon): 17.9 µM | TGI (IGROV1 ovarian): 34.4 µM | TGI (CAKI-1 renal): 4.59 µM | TGI (LXFL 529 NSCLC): 3.33 µM | TGI (M19-MEL melanoma): 26.7 µM | TGI (EKVX NSCLC): 12.3 µM | TGI (CCRF-CEM leukemia): 1.97 µM | TGI (A549 NSCLC): > 62.2 µM | TGI (ACHN renal): 11.2 µM | TGI (OVCAR-4 ovarian): 38.6 µM | TGI (KM12 colon): 15.3 µM | TGI (TK-10 renal): 14.6 µM | TGI (SK-MEL-28 melanoma): 14.9 µM | TGI (SN12C renal): 32.7 µM | TGI (NCI-H522 lung): 3.87 µM | TGI (HL-60(TB) leukemia): 31.5 µM | TGI (UO-31 renal): 26.6 µM | TGI (MOLT-4 leukemia): 12.6 µM | TGI (786-0 renal): 7.16 µM | TGI (HCC-2998 colon): 29.5 µM | TGI (HCT-116 colon): 23.1 µM | TGI (SK-MEL-2 melanoma): 29.7 µM | TGI (HOP-92 NSCLC): 6.8 µM | TGI (SK-OV-3 ovarian): > 56.7 µM | TGI (SF-268 CNS): 19.8 µM | TGI (MALME-3M melanoma): 11.4 µM | TGI (HCT-15 colon): 6.68 µM | TGI (U251 CNS): 15.6 µM | TGI (COLO 205 colon): 10.7 µM | TGI (SF-539 CNS): 25.3 µM | TGI (DMS 273 small cell lung): 27.1 µM | TGI (A498 renal): 23.9 µM | TGI (OVCAR-8 ovarian): 33.7 µM | TGI (KM20L2 colon): 27.2 µM | TGI (SF-295 CNS): > 55.3 µM | TGI (OVCAR-5 ovarian): 35.6 µM | TGI (DLD-1 colon): 5.54 µM | TGI (DMS 114 small cell lung): 31.2 µM | TGI (NCI-H460 lung): > 63.2 µM | TGI (SK-MEL-5 melanoma): 32.3 µM | TGI (NCI-H226 lung): 35.1 µM | TGI (SNB-75 CNS): 32.9 µM | TGI (SW-620 colon): 11.6 µM | TGI (LOX IMVI melanoma): 20.8 µM | TGI (XF 498 CNS): 11.1 µM | TGI (UACC-257 melanoma): 30.8 µM

NC(=O)c1c([N+](=O)[O-])cc(C(F)(F)F)cc1[N+](=O)[O-]
TGI (HOP-62 NSCLC): > 100 µM | TGI (M14 melanoma): > 100 µM | TGI (UACC-62 melanoma): > 100 µM | TGI (NCI-H23 lung): 98.9 µM | TGI (SR leukemia): > 100 µM | TGI (RPMI-8226 leukemia): > 100 µM | TGI (OVCAR-3 ovarian): 63.3 µM | TGI (HOP-18 NSCLC): > 100 µM | TGI (SNB-19 CNS): > 100 µM | TGI (HT29 colon): > 100 µM | TGI (IGROV1 ovarian): > 100 µM | TGI (CAKI-1 renal): > 100 µM | TGI (LXFL 529 NSCLC): > 100 µM | TGI (EKVX NSCLC): > 100 µM | TGI (A549 NSCLC): > 100 µM | TGI (ACHN renal): > 100 µM | TGI (OVCAR-4 ovarian): > 100 µM | TGI (KM12 colon): > 100 µM | TGI (TK-10 renal): > 100 µM | TGI (SK-MEL-28 melanoma): > 100 µM | TGI (SN12C renal): > 100 µM | TGI (NCI-H522 lung): > 100 µM | TGI (HL-60(TB) leukemia): 47.4 µM | TGI (UO-31 renal): > 100 µM | TGI (MOLT-4 leukemia): > 100 µM | TGI (786-0 renal): > 100 µM | TGI (SNB-78 CNS): > 100 µM | TGI (HCC-2998 colon): > 100 µM | TGI (HCT-116 colon): > 100 µM | TGI (HOP-92 NSCLC): > 100 µM | TGI (SK-OV-3 ovarian): > 100 µM | TGI (SF-268 CNS): > 100 µM | TGI (MALME-3M melanoma): 52.1 µM | TGI (U251 CNS): > 100 µM | TGI (COLO 205 colon): 62.7 µM | TGI (RXF 393 renal): > 100 µM | TGI (SF-539 CNS): > 100 µM | TGI (DMS 273 small cell lung): > 100 µM | TGI (A498 renal): > 100 µM | TGI (OVCAR-8 ovarian): > 100 µM | TGI (KM20L2 colon): 93.5 µM | TGI (SF-295 CNS): > 100 µM | TGI (OVCAR-5 ovarian): > 100 µM | TGI (DLD-1 colon): > 100 µM | TGI (DMS 114 small cell lung): 73.3 µM | TGI (NCI-H460 lung): > 100 µM | TGI (SK-MEL-5 melanoma): > 100 µM | TGI (NCI-H226 lung): > 100 µM | TGI (SNB-75 CNS): > 100 µM | TGI (SW-620 colon): > 100 µM | TGI (LOX IMVI melanoma): > 100 µM | TGI (XF 498 CNS): > 100 µM | TGI (UACC-257 melanoma): 99.8 µM | TGI (K-562 leukemia): > 100 µM
